What was measured:
[1] = molecular target: T1, V-ATPase subunit A (TSCA mutant) in complex with subunit B (Mythimna separata, UniProt A0A0U1XFD8+A0AAD8DTT7, A0AAD8DTT7:C254A/A0AAD8DTT7:T257S); assay: inhibition of ATP hydrolysis (inorganic phosphate release) by the purified complex; IC50 […], Ki calculated; CV was a suspension; assay type: biochemical
T1 construct: gene PYW07_012492; with V-ATPase subunit B

[2] = system: T2, Nc1ncnc2c1ncn2[C@@H]1O[C@H](COP(=O)(O)OP(=O)(O)OP(=O)(O)O)[C@@H](O)[C@H]1O; assay: ATP hydrolysis kinetics (inorganic phosphate release), Lineweaver–Burk Km; assay type: biochemical, Mythimna separata; details: Mg2+ ([…] MgCl2) ATP binding site of the AB complex (by docking: D416, D436, K437, K438 of subunit A and T439 of subunit B)
T2 construct: with V-ATPase subunit B

T1 sequence (A0AAD8DTT7 1-617, stated change not applied): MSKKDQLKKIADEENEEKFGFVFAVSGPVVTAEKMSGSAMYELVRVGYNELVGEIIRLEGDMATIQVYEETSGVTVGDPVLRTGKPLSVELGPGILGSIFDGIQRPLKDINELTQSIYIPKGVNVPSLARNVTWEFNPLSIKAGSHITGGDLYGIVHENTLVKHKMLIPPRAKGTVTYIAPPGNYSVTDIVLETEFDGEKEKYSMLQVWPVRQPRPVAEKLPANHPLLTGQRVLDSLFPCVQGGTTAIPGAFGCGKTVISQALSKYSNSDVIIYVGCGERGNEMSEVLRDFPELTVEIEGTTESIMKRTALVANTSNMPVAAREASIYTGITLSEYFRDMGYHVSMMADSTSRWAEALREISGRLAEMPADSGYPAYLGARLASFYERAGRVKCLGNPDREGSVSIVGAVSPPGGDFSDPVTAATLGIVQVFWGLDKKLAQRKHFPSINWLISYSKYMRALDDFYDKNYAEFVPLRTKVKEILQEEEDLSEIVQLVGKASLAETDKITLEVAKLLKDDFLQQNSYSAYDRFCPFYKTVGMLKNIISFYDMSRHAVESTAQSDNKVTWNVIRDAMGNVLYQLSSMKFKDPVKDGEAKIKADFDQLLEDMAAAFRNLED
T1 sequence (A0A0U1XFD8 1-497): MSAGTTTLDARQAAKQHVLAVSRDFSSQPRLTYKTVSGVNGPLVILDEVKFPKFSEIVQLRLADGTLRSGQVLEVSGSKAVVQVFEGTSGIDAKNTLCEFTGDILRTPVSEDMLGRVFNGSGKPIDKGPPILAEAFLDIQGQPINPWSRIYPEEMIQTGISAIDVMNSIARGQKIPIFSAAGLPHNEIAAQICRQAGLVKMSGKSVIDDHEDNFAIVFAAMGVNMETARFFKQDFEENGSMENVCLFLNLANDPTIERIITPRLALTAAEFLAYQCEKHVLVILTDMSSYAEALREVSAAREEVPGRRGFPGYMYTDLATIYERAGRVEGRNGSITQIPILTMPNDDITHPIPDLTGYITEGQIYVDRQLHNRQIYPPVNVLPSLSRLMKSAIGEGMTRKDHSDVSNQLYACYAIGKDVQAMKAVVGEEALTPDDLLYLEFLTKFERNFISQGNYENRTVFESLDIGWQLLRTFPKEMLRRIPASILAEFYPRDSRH

Molecule	Ki [1] [µM]	Km [2] [µM]
CC(=O)O[C@H]1C[C@](C)(O)C23OC(C)(C)[C@H]([C@H](OC(=O)C(C)C)[C@@H](OC(=O)c4ccccc4)[C@]2(COC(=O)C(C)C)[C@H]1OC(C)=O)[C@H]3O [CV, Celangulin V]	10	–
V-ATPase subunit A (TSCA mutant) in complex with subunit B (Mythimna separata; A0AAD8DTT7:C254A/A0AAD8DTT7:T257S)	–	268

Source: PMC6409644, “The Inhibitory Effect of Celangulin V on the ATP Hydrolytic Activity of the Complex of V-ATPase Subunits A and B in the Midgut of Mythimna separata” (Toxins, 2019)
